Format in all cases: cell-based
Test [1] relates to OV-2774. As to the kind of experiment: Cytotoxicity assay (WST1). As to conditions: Ovarian, OV-2774, WST1. The protocol:
(§1) 5,000 cells/well were seeded in 96-well plates with appropriate culture media. After cells treatment, WST-1 reagent (Sigma-Aldrich) was added to each well according to the manufacturer's instructions. These experiments were performed in triplicates and were repeated several times.
(In general: Tetrazolium dyes change colour on reduction, which living cells bring about.)

The test system of test [2] is HCT-116. Nature of the test: Cytotoxicity assay (WST1). To be noted: Colon, HCT-116, WST1. The method, then: as §1
Test [3] relates to CSC (MDA-MB-231). As to the kind of experiment: WST1 cytotoxicity on pre-formed tumorspheres (cancer stem cells). To be noted: cisplatin 50 µM for 24 h, MDA-MB-231 tumorspheres. The protocol: (§2) It is well known that cancer stem cells are the most resistant type of cells, which are responsible for recurrence and metastasis (Garcia-Mayea et al., 2020). Therefore, we decided to investigate the effect of eugenoplatin on the self-renewal ability and sternness capacity of cancer cells. To this end, cancer cells were first either sham-treated (DMSO) or challenged with eugenoplatin (3 µM) for 24 h, and then were incubated in 96 well ultra-low attachment plates in the presence of stem cells culture medium. After 10 days, the formed spheroids with a dimeter ≥ 100 µm were counted (Fig. 6A).
as §1
(§3) Cells were seeded in 96 well ultra-low attachment plate at a density of 1000 viable cells/well. Cells were cultured in 171 medium supplemented with 1% ABM, 2% B-27, 20 ng/mL EGF, 500 ng/ml HC, 4% FBS and 5 µg/ml insulin. Cells were incubated for 10 days at 37°C under 5% CO2. Mammospheres with a diameter of ≥100 µm were counted using OPTIKA light microscope.

For test [4], the system named is CSC (MG-64). The description is as above. As to conditions: cisplatin 50 µM for 24 h, MG-64 tumorspheres. The protocol: as §2, §1, §3
For test [5], the system named is Cal62. As to the kind of experiment: Cytotoxicity assay (WST1). As to conditions: Thyroid. The protocol:
as §1

For test [6], the system named is MG-64. Nature of the test: Cytotoxicity assay (WST1). To be noted: Osteosarcoma, MG-64, WST1. The protocol: as §1
Test [7] concerns H-1937. Nature of the test: Cytotoxicity assay (WST1). As to conditions: Lung, H-1937, WST1. The method, then:
as §1

Test [8] relates to A1235. Nature of the test: Cytotoxicity assay (WST1). To be noted: Glioblastoma. The protocol:
as §1

In test [9] the test system is human fibroblast cells (HFSN1). Nature of the test: γ-H2AX immunofluorescence (DNA damage). To be noted: cisplatin 50 µM for 24 h. The method, then:
Since cisplatin is a DNA damaging chemotherapeutic drug, we investigated whether eugenoplatin can also promote DNA damage in cells. […] To confirm this, we assessed the level of the phosphorylated form of p53 (P.p53) in eugenoplatin-treated cells. […] This was accompanied by a late increase in the level of the p53 target p21 (Fig. 7B).
HFSN1 cells were fixed in formaldehyde (4%) for 19 minutes and blocked with Goat serum (5%), triton X (0.3%) and 1% sodium azide (5%) for 1 hour. The slides were then stained overnight at 4 °C with γ-H2AX antibody (pSer139) (Novusibio) that diluted in BSA (1%), triton X (0.3%) and 1 % sodium azide (5%), and subsequently incubated with alexa flour 594-conjugated goat anti-rabbit IgG and DAPI for 1 hour. Images were acquired using fluorescence microscope (Zeiss).

The structures appear in SMILES notation.

What is called IC50 is the concentration at which inhibition is half-maximal. `N.N.O=C([O-])C1(C(=O)[O-])CCC1.[Pt+2]` [Carboplatin]: the midpoint of inhibition in test [1], the IC50, lay at 53.3 ± 0.67 µM.
Compound `O=C(O)C(=O)O.[NH-][C@@H]1CCCC[C@H]1[NH-].[Pt+2]` [Oxaliplatin] showed an IC50 in [2] of 3.17 ± 0.52 µM.
With `N.N.[Cl][Pt][Cl]` [Cisplatin, (SP-4-2)-diamminedichloridoplatinum(II)], the “proportion of survival CSC” value in test [3] and in test [4] was “not affected” throughout. Also, the IC50 in test [5] was 25.7 ± 2.19 µM; in test [6], 26 ± 4 µM; in test [7], 67.8 ± 7.75 µM; in test [8], 55.8 ± 18.2 µM. The γ-H2AX immunostaining result in test [9] was “strong nuclear staining”.

These data come from patent EP4311830A1 (King Faisal Specialist Hospital & Research Centre, priority 2022, dated 2024).
